Data from US7837991B2, “Method of cancer treatment by p53 protein control” (Aventis Pharma, S.A., priority 1994, dated 2010).

T1: bovine m-calpain (Bos taurus, UniProt Q27971)
T1 construct: purchased Sigma
T1 sequence (Q27971 20-700 limits assumed): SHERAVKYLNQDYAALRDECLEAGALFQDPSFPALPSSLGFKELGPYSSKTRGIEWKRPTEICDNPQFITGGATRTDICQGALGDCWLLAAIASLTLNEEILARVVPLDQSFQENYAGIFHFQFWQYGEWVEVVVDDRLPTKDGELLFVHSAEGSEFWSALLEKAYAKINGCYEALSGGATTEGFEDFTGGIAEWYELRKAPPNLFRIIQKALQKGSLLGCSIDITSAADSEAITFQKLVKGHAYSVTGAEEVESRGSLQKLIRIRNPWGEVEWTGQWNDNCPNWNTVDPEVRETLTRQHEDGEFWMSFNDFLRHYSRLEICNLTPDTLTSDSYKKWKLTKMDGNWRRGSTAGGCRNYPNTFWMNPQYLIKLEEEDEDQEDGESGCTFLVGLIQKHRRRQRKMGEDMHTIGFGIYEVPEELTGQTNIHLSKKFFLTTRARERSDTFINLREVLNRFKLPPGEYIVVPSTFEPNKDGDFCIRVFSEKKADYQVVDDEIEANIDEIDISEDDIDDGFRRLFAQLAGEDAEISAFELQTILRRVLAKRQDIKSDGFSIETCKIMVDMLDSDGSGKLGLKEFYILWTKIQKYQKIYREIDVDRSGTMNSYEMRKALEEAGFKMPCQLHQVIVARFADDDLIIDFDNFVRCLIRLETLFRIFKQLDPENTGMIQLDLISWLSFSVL
T1 sequence (P13135 1-263 partner): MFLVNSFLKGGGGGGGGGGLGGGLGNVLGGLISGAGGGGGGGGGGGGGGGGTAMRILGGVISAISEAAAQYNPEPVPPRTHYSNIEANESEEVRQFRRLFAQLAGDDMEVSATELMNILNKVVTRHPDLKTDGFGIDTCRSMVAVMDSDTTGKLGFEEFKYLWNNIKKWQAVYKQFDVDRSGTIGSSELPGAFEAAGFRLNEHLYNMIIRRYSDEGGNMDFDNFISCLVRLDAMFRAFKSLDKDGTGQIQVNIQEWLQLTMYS

B1: soybean trypsin inhibitor (protein, UniProt P01070 25-205, looked up)
Trypsin inhibitor A: DFVLDNEGNPLENGGTYYILSDITAFGGIRAAPTGNERCPLTVVQSRNELDKGIGTIISSPYRIRFIAEGHPLSLKFDSFAVIMLCVGIPTEWSVVEDLPEGPAVKIGENKDAMDGWFRLERVSDDEFNNYKLVFCPQQAEDDKCGDIGISIDHDDGTRRLVVSKNKPLVVQFQKLDKESL

Legend:
[1] = target: T1, bovine m-calpain; assay: Degradation of p53 proteins by exogenous m-calpain in rabbit reticulocyte lysate; type: biochemical; conditions: m-calpain plus calcium, mouse and human wild-type and mutated p53
Text: 1.1. […] The proteins thus obtained are resistant to any degradation, even in the presence of a high concentration of calcium (cofactor essential for the calpains). The addition of bovine m-calpain (Sigma) to the reticulocyte lysate in the presence of calcium led to the rapid disappearance of the neosynthesized proteins and the appearance of proteolytic fragments which are resolvable by electrophoresis. The degradation resistance of other proteins such as dihydrofolate reductase or glyceraldehyde-3-phosphate dehydrogenase under the same experimental conditions indicates the substrate specificity of the reaction.
1.2. Use of inhibitors of calpain for modulating the levels of p53 proteins: in the above Example 1.1., it was shown that the addition of m-calpain induced degradation of the p53 proteins. In this example, in addition to m-calpain, various compounds were introduced into the medium in order to test their capacity to inhibit the activity of calpain.

[2] = test system: calpains of the cytoplasmic extract; assay: Degradation of p53 proteins by endogenous calpains in cytoplasmic extracts of Daudi or Jurkat cells; type: biochemical, human; conditions: in the presence of calcium
Procedure: 2.1. Degradation by the endogenous calpains: mouse and human wild-type p53 proteins, as well as certain mutated forms (cf Example 1) were translated in the reticulocyte lysate and were then incubated in the presence of cytoplasmic extracts of Daudi or Jurkat human lymphoblastoid cells. The cytoplasmic extracts were prepared in the following manner: the cells (available at the ATCC) were cultured in DMEM medium supplemented with 10% foetal calf serum. The cells were then harvested, washed in PBS buffer and then incubated for 5 min in a detergent-free hypotonic lysis buffer (HEPES 20 mM, pH 7.5; KOAc 10 mM; MgOAc 1.5 mM; 2 ml per 5×10^8 cells). The lysis was completed using a Dounce homogenizer and then checked under a microscope. The nuclei were then removed by centrifugation at 2000 g for 5 min, and the supernatants were centrifuged at 10,000 g for 1 hour (Beckman SW60). The cytoplasmic extracts were then aliquoted in an amount of 5 to 12 mg/ml.

| Molecule | inhibition of the degradation of the p53 proteins induced by the exogenous calpain [1] | effect on calcium-dependent degradation of p53 proteins in cytoplasmic extracts [2] |
| --- | --- | --- |
| O=C(O)CN(CCOCCOCCN(CC(=O)O)CC(=O)O)CC(=O)O [EGTA] | capable of inhibiting the degradation of the p53 proteins | – |
| O=S(=O)(F)Cc1ccccc1 [PMSF] | – | show that the degradation of these proteins is dependent on the calpains |
| CC(=O)N[C@@H](CC(C)C)C(=O)N[C@@H](CC(C)C)C(=O)N[C@H](C=O)CCCNC(=N)N [leupeptin] | – | show that the degradation of these proteins is dependent on the calpains |
| aprotinin | – | show that the degradation of these proteins is dependent on the calpains |
| B1 | – | show that the degradation of these proteins is dependent on the calpains |
